Source: patent US20240059703A1 (AMGEN INC., priority 2021, published 2024)
pIC50: −log10 of the molar value.

target: KRAS G12C (Homo sapiens (Human), UniProt P01116, C118A/G12C); experiment: 2 h coupled exchange assay; assay type: biochemical; conditions: Avg 2 h Coupled exchange IC50, 2 h compound pre-incubation
Procedure: The term “2 h coupled exchange assay” or “20 h coupled exchange assay” as used herein refers to the assay described in the Section entitled “BIOLOGICAL EVALUATION.”

Compound	pIC50
C=CC(=O)N1CC2(CCN(c3nc4cc(-c5ccnn5C(F)F)ccc4c(-c4ccccc4Cl)c3C#N)C2)C1 [Example 17-4, 4-(2-chlorophenyl)-7-(1-(difluoromethyl)-1H-pyrazol-5-yl)-2-(2-(2-propenoyl)-2,6-diazaspiro[3.4]octan-6-yl)-3-quinolinecarbonitrile]	6.28
C=CC(=O)N1CC2(CCN(c3nc4c(c(-c5cc(O)ccc5C)c3C)COC(C)(C)C4)C2)C1 [Example 14-30, 1-(6-(4-(5-hydroxy-2-methylphenyl)-3,7,7-trimethyl-7,8-dihydro-5H-pyrano[4,3-b]pyridin-2-yl)-2,6-diazaspiro[3.4]octan-2-yl)-2-propen-1-one]	6.67
C=CC(=O)N1CC2(CCN(c3nc4c(c(-c5c(C)ccc6cnn(C)c56)c3F)COC(C)(C)C4)C2)C1 [Example 14-71, 1-(6-(4-(1,6-dimethyl-1H-indazol-7-yl)-3-fluoro-7,7-dimethyl-7,8-dihydro-5H-pyrano[4,3-b]pyridin-2-yl)-2,6-diazaspiro[3.4]octan-2-yl)-2-propen-1-one]	6.11
C=CC(=O)N1CC2(CCN(c3nc4c(c(-c5cc(O)cc6ccccc56)c3F)COC(C)(C)C4)C2)C1 (single isomer, unassigned) [Example 14-69, (M)-1-(6-(3-fluoro-4-(3-hydroxy-1-naphthalenyl)-7,7-dimethyl-7,8-dihydro-5H-pyrano[4,3-b]pyridin-2-yl)-2,6-diazaspiro[3.4]octan-2-yl)-2-propen-1-one]	4.77
C=CC(=O)N1CC2(CCN(c3nc4cc(-c5scnc5C)ccc4c(-c4ccccc4Cl)c3C)C2)C1 [Example 15-2, 1-(6-(4-(2-chlorophenyl)-3-methyl-7-(4-methyl-1,3-thiazol-5-yl)-2-quinolinyl)-2,6-diazaspiro[3.4]octan-2-yl)-2-propen-1-one]	6.32
Cc1ccc2[nH]ncc2c1-c1c(Cl)c(N2CCC3(CN(C(=O)/C=C/CN(C)C)C3)C2)cc2c1OCCC2 [Example 32-1, (2E)-1-(6-(7-chloro-8-(5-methyl-1H-indazol-4-yl)-3,4-dihydro-2H-chromen-6-yl)-2,6-diazaspiro[3.4]octan-2-yl)-4-(dimethylamino)-2-buten-1-one]	6.22
C=CC(=O)N1CC2(CCN(c3nc4c(c(-c5cc(O)ccc5C)c3F)COC(C)(C)C4)C2)C1 (single isomer, unassigned) [Example 14-61, (M)-1-(6-(3-fluoro-4-(5-hydroxy-2-methylphenyl)-7,7-dimethyl-7,8-dihydro-5H-pyrano[4,3-b]pyridin-2-yl)-2,6-diazaspiro[3.4]octan-2-yl)-2-propen-1-one]	4.11
C=CC(=O)N1CC2(CCN(c3nc4cc(-c5ccnn5C)ccc4c(-c4ccc(F)cc4F)c3C)C2)C1 [Example 16-6, 1-(6-(4-(2,4-difluorophenyl)-3-methyl-7-(1-methyl-1H-pyrazol-5-yl)-2-quinolinyl)-2,6-diazaspiro[3.4]octan-2-yl)-2-propen-1-one]	6.15

same assay, conditions: Avg 2 h Coupled exchange IC50, 2 h compound pre-incubation, SOS-mediated nucleotide exchange

Compound	pIC50
C=CC(=O)N1CC2(CCN(c3nc4c(c(-c5c(O)cccc5Cl)c3C#N)C[C@H]3C[C@@H]4C3)C2)C1 [Example 13-64, (1S,9S)-6-(2-chloro-6-hydroxyphenyl)-4-(2-(2-propenoyl)-2,6-diazaspiro[3.4]octan-6-yl)-3-azatricyclo[7.1.1.0^2,7]undeca-2,4,6-triene-5-carbonitrile]	5.97
C=CC(=O)N1CC2(CCN(c3cc4c(c(-c5cc(O)cc6ccccc56)c3C#N)OCCC4)C2)C1 (single isomer, unassigned) [Example 2-53, (P)-8-(3-hydroxy-1-naphthalenyl)-6-(2-(2-propenoyl)-2,6-diazaspiro[3.4]octan-6-yl)-3,4-dihydro-2H-chromene-7-carbonitrile]	5.15
C=CC(=O)N1CC2(CCN(c3nc4c(c(-c5c(C)ccc6cn[nH]c56)c3C)CCC(C)(C)C4)C2)C1 (single isomer, unassigned) [Example 2-24, (P)-1-(6-(3,7,7-trimethyl-4-(6-methyl-1H-indazol-7-yl)-5,6,7,8-tetrahydro-2-quinolinyl)-2,6-diazaspiro[3.4]octan-2-yl)-2-propen-1-one]	6.92
C=CC(=O)N1CC2(CCN(c3nc4c(c(-c5c(C)ccc6cnn(C)c56)c3C#N)C[C@H]3C[C@@H]4C3(C)C)[C@H]2CO)C1 [Example 13-62, (1R,9R)-6-(1,6-dimethyl-1H-indazol-7-yl)-4-((5R)-5-(hydroxymethyl)-2-(2-propenoyl)-2,6-diazaspiro[3.4]octan-6-yl)-10,10-dimethyl-3-azatricyclo[7.1.1.0^2,7]undeca-2,4,6-triene-5-carbonitrile]	6.48
C=CC(=O)N1CC2(CCN(c3nc4c(c(-c5c(F)ccc6cc[nH]c56)c3C#N)C[C@H]3C[C@@H]4C3(C)C)C2)C1 [Example 12-15, (1R,9R)-6-(6-fluoro-1H-indol-7-yl)-10,10-dimethyl-4-(2-(2-propenoyl)-2,6-diazaspiro[3.4]octan-6-yl)-3-azatricyclo[7.1.1.0^2,7] undeca-2,4,6-triene-5-carbonitrile]	6.33
Cc1ccc2[nH]ncc2c1-c1c(C#N)c(N2CCC3(CN(C(=O)/C=C/CO)C3)C2)nc2c1CCC(C)(C)C2 [Example 13-9, 2-(2-((2E)-4-hydroxy-2-butenoyl)-2,6-diazaspiro[3.4]octan-6-yl)-7,7-dimethyl-4-(5-methyl-1H-indazol-4-yl)-5,6,7,8-tetrahydro-3-quinolinecarbonitrile]	6.49
C=CC(=O)N1CC2(CCN(c3nc4c(c(-c5cc(O)cc(Cl)c5C)c3C)COC(C)(C)C4)C2)C1 (single isomer, unassigned) [Example 12-44, (P)-1-(6-(4-(3-chloro-5-hydroxy-2-methylphenyl)-3,7,7-trimethyl-7,8-dihydro-5H-pyrano[4,3-b]pyridin-2-yl)-2,6-diazaspiro[3.4]octan-2-yl)prop-2-en-1-one]	4.96
CN(C)C/C=C/C(=O)N1CC2(CCN(c3nc4c(c(-c5cc(O)cc6ccccc56)c3C#N)CC[C@H]3C[C@@H]43)C2)C1 (single isomer, unassigned) [Example 13-88]	6.84
C=CC(=O)N1CC2(CCN(c3nc4c(c(-c5cc(O)ccc5C)c3C#N)C[C@H]3C[C@@H]4C3)C2)C1 (single isomer, unassigned) [Example 13-125]	4.90
C=CC(=O)N1CC2(CCN(c3nc4c(c(-c5cc(S(N)(=O)=O)ccc5C)c3C#N)CCC(C)(C)C4)C2)C1 [Example 2-106, 3-(3-cyano-7,7-dimethyl-2-(2-(2-propenoyl)-2,6-diazaspiro[3.4]octan-6-yl)-5,6,7,8-tetrahydro-4-quinolinyl)-4-methylbenzenesulfonamide]	6.54
C=CC(=O)N1CC2(CCN(c3nc4c(c(-c5cc(O)ccc5C)c3C#N)C3CCC4C3)C2)C1 [Example 2-37, (1R,8S)-6-(5-hydroxy-2-methylphenyl)-4-(2-(2-propenoyl)-2,6-diazaspiro[3.4]octan-6-yl)-3-azatricyclo[6.2.1.0^2,7]undeca-2,4,6-triene-5-carbonitrile|(1S, 8R)-6-(5-hydroxy-2-methylphenyl)-4-(2-(2-propenoyl)-2,6-diazaspiro[3,4]octan-6-yl)-3-azatricyclo[6.2.1.0^2.7]undeca-2,4,6-triene-5-carbonitrile]	6.53
C=CC(=O)N1CC2(CCN(c3nc4c(c(-c5c(Cl)ccc6cc[nH]c56)c3C#N)COC(C)(C)C4)C2)C1 [Example 12-13, 4-(6-chloro-1H-indol-7-yl)-7,7-dimethyl-2-(2-(2-propenoyl)-2,6-diazaspiro[3.4]octan-6-yl)-7,8-dihydro-5H-pyrano[4,3-b]pyridine-3-carbonitrile]	6.60
C=CC(=O)N1CC2(CCN(c3nc4c(c(-c5cccc6[nH]ccc56)c3C#N)C[C@H]3C[C@@H]4C3(C)C)C2)C1 [Example 12-42, (1R,9R)-6-(1H-indol-4-yl)-10,10-dimethyl-4-(2-(2-propenoyl)-2,6-diazaspiro[3.4]octan-6-yl)-3-azatricyclo[7.1.1.0^2,7] undeca-2,4,6-triene-5-carbonitrile]	6.06
C=CC(=O)N1CC2(CCN(c3nc4c(c(-c5c(O)ccc6ccccc56)c3C#N)C[C@H]3C[C@@H]4C3)C2)C1 (single isomer, unassigned) [Example 13-37]	4.50
C=CC(=O)N1CC2(CCN(c3nc4c(c(-c5c(C)ccc6cnn(C)c56)c3C#N)CO[C@H](C3CC3)C4)C2)C1 (single isomer, unassigned) [Example 13-120]	5.04
C=CC(=O)N1CC2(CCN(c3nc4c(c(-c5c(Cl)ccc6[nH]ccc56)c3C#N)COC(C)(C)C4)C2)C1 [Example 12-16, 4-(5-chloro-1H-indol-4-yl)-7,7-dimethyl-2-(2-(2-propenoyl)-2,6-diazaspiro[3.4]octan-6-yl)-7,8-dihydro-5H-pyrano[4,3-b]pyridine-3-carbonitrile]	6.62
C=CC(=O)N1CC2(CCN(c3nc4c(c(-c5c(C)ccc6[nH]ncc56)c3C#N)OC3(COC3)C4)C2)C1 [Example 13-107, 7-(5-methyl-1H-indazol-4-yl)-5-(2-(2-propenoyl)-2,6-diazaspiro[3.4]octan-6-yl)-3H-spiro[furo[3,2-b]pyridin-2,3′-oxetane]-6-carbonitrile]	6.15
C=CC(=O)N1CC2(CCN(c3nc4c(c(-c5c(C)ccc6cnn(C)c56)c3C)CCC(C)(C)C4)C2)C1 (single isomer, unassigned) [Example 2-20, (M)-1-(6-(4-(1,6-dimethyl-1H-indazol-7-yl)-3,7,7-trimethyl-5,6,7,8-tetrahydro-2-quinolinyl)-2,6-diazaspiro[3.4]octan-2-yl)-2-propen-1-one]	4.98

same assay, conditions: read-out: Avg 2 h Coupled exchange IC50, 2 h compound pre-incubation, SOS-mediated nucleotide exchange

Compound	pIC50
(P)-1-(6-(4-(5-chloro-1-methyl-1H-indazol-7-yl)-3,7,7-trimethyl-7,8-dihydro-5H-pyrano[4,3-b]pyridin-2-yl)-2,6-diazaspiro[3.4]octan-2-yl)-2-propen-1-one [Example 2-34]	6.37
